Publication PMC12112332, “Characterization of Novel and Known Activators of Cannabinoid Receptor Subtype 2 Reveals Mixed Pharmacology That Differentiates Mycophenolate Mofetil and GW-842,166X from MDA7” (International Journal of Molecular Sciences, 2025)

Target: T1, rat CB2 (Rattus norvegicus, UniProt Q9QZN9)
T1 sequence (Q9QZN9 1-360): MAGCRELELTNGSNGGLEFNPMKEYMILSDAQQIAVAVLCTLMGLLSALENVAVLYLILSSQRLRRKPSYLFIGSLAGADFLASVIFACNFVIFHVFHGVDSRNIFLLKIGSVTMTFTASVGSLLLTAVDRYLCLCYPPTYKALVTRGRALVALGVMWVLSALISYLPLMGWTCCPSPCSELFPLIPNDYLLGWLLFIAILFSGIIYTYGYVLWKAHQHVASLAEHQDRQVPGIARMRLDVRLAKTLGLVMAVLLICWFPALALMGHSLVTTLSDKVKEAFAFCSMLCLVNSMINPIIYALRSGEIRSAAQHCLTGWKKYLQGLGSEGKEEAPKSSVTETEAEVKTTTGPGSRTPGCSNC
Assay: [3H]CP55,940 radioligand competition binding, membranes of HEK/GIRK cells expressing rat CB2
Set-up: expressed in transfected cells; host or cells: HEK293 cells stably co-expressing GIRK1/2 channels
Excerpt: Agonists that bind to the receptor at the site occupied by the endogenous ligand (2-AG in this case) are considered orthosteric agonists. It is also possible for an agonist to bind and activate a receptor via a site other than the orthosteric site; these ligands are classified as allosteric agonists. To characterize the nature of the agonist activity of mycophenolate mofetil, we tested its ability to bind to the receptor in equilibrium binding assays using membranes harvested from cells expressing rCB2 using the radioligand [^3H]CP55,940 [40, 60]. CP55,940 has an affinity for both CB1 and CB2 receptors in the low nM range and is reported to bind to the site occupied by 2-AG [61].
Competition binding concentration–response curves were obtained in the presence of 0.5 nM [^3H]CP55,940 using membranes harvested from HEK/GIRK cells expressing rCB2. Data represent the mean ± SEM of three independent experiments run in triplicate. Data are plotted as a percentage of specific [^3H]CP55,940 binding. Non-specific binding was determined in the presence of 10 µM CP55,940.
Membranes were made from HEK/GIRK cells stably expressing rat CB2. Radioligand competition binding assays were performed as previously described, with minor modifications. In brief, compounds were serially diluted into assay buffer with 0.1% bovine serum albumin (BSA) and added to each well of a 96-well plate, along with 20 μg/well cell membrane and approximately 500 pM [^3H]-CP55,940 (specific activity = 104 Ci/mmol, PerkinElmer, Waltham, MA, USA). Following a 3-h incubation period on a shaker at room temperature, membrane-bound ligand was separated from free ligand by filtration through glass fiber 96-well filter plates (Unifilter-96, GF/B; PerkinElmer, Waltham, MA, USA). Forty microliters of scintillation fluid were added to each well, and membrane-bound radioactivity was determined by scintillation counting (Microbeta2; Revvity, Waltham, MA, USA). Nonspecific binding was determined using 10 μM of cold CP55,940.

SMILES | Ki [µM] | rCB2 Binding Affinity pKi ± SEM (0.5 nM [3H]CP55,940, equilibrium)
CCCCC/C=C\C/C=C\C/C=C\C/C=C\CCCC(=O)OC(CO)CO [2-AG, 2-Arachidonoylglycerol] | 3.47 | –
COc1ccc(C(=O)c2c(C)n(CCN3CCOCC3)c3cc(I)ccc23)cc1 [AM630] | – | 7.61 ± 0.29
